Data as given in paper PMC8468270, “In Vitro Heme Coordination of a Dye-Decolorizing Peroxidase—The Interplay of Key Amino Acids, pH, Buffer and Glycerol” (International Journal of Molecular Sciences, 2021).

Biological target: T1, KpDyP (WT KpDyP) (Klebsiella pneumoniae, UniProt A0A0W8ATM9)
T1 construct: gene yfeX; homodimer; ferric heme; distal D143, R232, L246, F248, proximal H215
T1 sequence (A0A0W8ATM9 1-299): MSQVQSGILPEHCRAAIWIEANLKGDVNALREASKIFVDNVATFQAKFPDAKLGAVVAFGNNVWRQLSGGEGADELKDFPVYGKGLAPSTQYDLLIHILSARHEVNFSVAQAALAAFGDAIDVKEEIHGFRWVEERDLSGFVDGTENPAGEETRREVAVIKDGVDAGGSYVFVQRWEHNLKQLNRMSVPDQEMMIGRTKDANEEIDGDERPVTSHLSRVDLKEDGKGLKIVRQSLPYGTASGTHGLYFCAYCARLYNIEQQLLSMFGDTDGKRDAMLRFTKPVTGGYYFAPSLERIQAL
Test: X-band CW EPR of frozen solution
Type: binding
Settings: glycine-KOH buffer 50 mM, pH 10.0, 10 K, no glycerol; heme iron distal ligand; seen only at low temperature, not at room temperature

## NCC(=O)O [glycine]
  X-band CW EPR of frozen solution: glycine binding is also observed for WT and R232A KpDyP at low temperature
